What is called logD is the decadic logarithm of the distribution of all forms, ionised or not, between an organic phase and buffer at a given pH. A higher logD goes with higher lipophilicity.

From ChEMBL document CHEMBL1154027, “Imidazopyridine derivatives as potent and selective Polo-like kinase (PLK) inhibitors” (Bioorg Med Chem Lett, 2009) come the findings set out here.

Series [1] in a line: Lipophilicity, Log D of the compound. It is filed as physicochemical. Particulars: octanol/water.
Series [2] can be described thus: Plasma concentration in F344/NJcl-rnu nude rat at 0.45 mg/kg after 48 hrs. Type of series: ADME, organism-based. Also on record: dose 0.45 mg/kg.
A short description of series [3]: Plasma concentration in F344/NJcl-rnu nude rat at 0.60 mg/kg after 48 hrs. Type of series: ADME, organism-based. Also on record: dose 0.6 mg/kg. As to conditions: 0.6 mg/kg.

Regarding `C[C@@H](Oc1cc(-c2cnc3ccccn23)sc1C(N)=O)c1ccc(CNC(C)(C)C)cc1F`, in series [1], the logD came to 2.2.
Turning to `C[C@@H](Oc1cc(-c2cnc3ccccn23)sc1C(N)=O)c1ccc(CNC(C)(C)C)cc1OC(F)F`, the concentration at 48 h in series [2] came out at 50 nM; in series [3], 80 nM. The compound further yielded a logD in series [1] of 2.7.
Turning to `C[C@@H](Oc1cc(-c2cnc3ccccn23)sc1C(N)=O)c1ccc(CN(C)C)cc1Cl`, the logD in series [1] worked out at 2.9.
On the same count and under the same terms, for `CC(Oc1cc(-c2cnc3ccccn23)sc1C(N)=O)c1cc(CO)ccc1Cl` (stereo unspecified) the value was 3.7.
Same read-out and setting: for `C[C@@H](Oc1cc(-c2cnc3ccccn23)sc1C(N)=O)c1ccc(CNC(C)(C)CO)cc1Cl` the value was 2.9.
In series [1], `C[C@@H](Oc1cc(-c2cnc3ccccn23)sc1C(N)=O)c1ccc(CNC(C)(C)C)cc1Cl` came in with a log distribution coefficient (logD) of 2.9.
On the same count and under the same terms, to `C[C@@H](Oc1cc(-c2cnc3ccccn23)sc1C(N)=O)c1ccc(CNCCCO)cc1Cl` belongs 2.1.
Same read-out and setting: for `CCNCc1ccc([C@@H](C)Oc2cc(-c3cnc4ccccn34)sc2C(N)=O)c(Cl)c1` the value was 2.8.
Still for that read-out and setting: to `C[C@@H](Oc1cc(-c2cnc3ccccn23)sc1C(N)=O)c1ccc(CNC2CCCC2)cc1Cl` belongs 3.5; to `NC(=O)c1sc(-c2cnc3ccccn23)cc1OCc1ccccc1C(F)(F)F`, 4.2; to `C[C@@H](Oc1cc(-c2cnc3ccccn23)sc1C(N)=O)c1ccc(CO)cc1Cl`, 3.8.
For the compound `CNCc1ccc([C@@H](C)Oc2cc(-c3cnc4ccccn34)sc2C(N)=O)c(Cl)c1`, the logD in series [1] came to 1.9.
Same read-out and setting: for `CC(Oc1cc(-c2cnc3cc(CO)ccn23)sc1C(N)=O)c1ccccc1Cl` (racemic) the value was 4.1.
The same measure, in the same setting: to `CC(C)NCc1ccc([C@@H](C)Oc2cc(-c3cnc4ccccn34)sc2C(N)=O)c(Cl)c1` belongs 2.3.
Still for that read-out and setting: to `C[C@@H](Oc1cc(-c2cnc3ccccn23)sc1C(N)=O)c1ccc(CN2CCC(O)CC2)cc1Cl` belongs 3.3; to `C[C@@H](Oc1cc(-c2cnc3ccccn23)sc1C(N)=O)c1ccc(CN2CCN(C)CC2)cc1Cl`, 2.8.
Regarding `C[C@@H](Oc1cc(-c2cnc3ccccn23)sc1C(N)=O)c1ccc(CNCCO)cc1Cl`, in series [1], the pH-dependent lipophilicity (logD) was determined as 2.4.
On the same count and under the same terms, for `NC(=O)c1sc(-c2cnc3ccccn23)cc1OCc1ccccc1Cl` the value was 4.1.
`C[C@@H](Oc1cc(-c2cnc3ccccn23)sc1C(N)=O)c1ccccc1CO` displayed a logD in series [1] of 3.2.
The same measure, in the same setting: to `C[C@@H](Oc1cc(-c2cnc3ccccn23)sc1C(N)=O)c1ccc(CNC2CC2)cc1Cl` belongs 3.6; to `C[C@@H](Oc1cc(-c2cnc3ccccn23)sc1C(N)=O)c1ccc(CN2CCS(=O)(=O)CC2)cc1Cl`, 3.2.
The same measure, in the same setting: to `C[C@@H](Oc1cc(-c2cnc3ccccn23)sc1C(N)=O)c1ccc(CN2CCNC(=O)C2)cc1Cl` belongs 2.8; to `C[C@@H](Oc1cc(-c2cnc3ccccn23)sc1C(N)=O)c1ccc(CN2CCC(O)C2)cc1Cl` (stereo partly specified), 3.3; to `C[C@@H](Oc1cc(-c2cnc3ccccn23)sc1C(N)=O)c1ccc(CN2CCC(F)CC2)cc1Cl`, 3.7.
Compound `C[C@@H](Oc1cc(-c2cnc3ccc(CO)cn23)sc1C(N)=O)c1ccccc1Cl` showed a log distribution coefficient (logD) in series [1] of 4.2.
Same read-out and setting: to `C[C@@H](Oc1cc(-c2cnc3ccccn23)sc1C(N)=O)c1ccc(CNC(C)(C)C)cc1C(F)F` belongs 2.6; to `NC(=O)c1sc(-n2cnc3ccccc32)cc1OCc1ccccc1C(F)(F)F`, 4.6.
On the same count and under the same terms, to `NC(=O)c1sc(-c2cnn3ccccc23)cc1OCc1ccccc1C(F)(F)F` belongs 4.8.
Still for that read-out and setting: for `C[C@@H](Oc1cc(-c2cnc3ccccn23)sc1C(N)=O)c1ccccc1Cl` the value was 4.8.
